Measured values as given in US20080274543A1, “Neuronal Cell Propagation Using Rotating Wall Vessel” (THE ADMINISTRATORS OF THE TULANE EDUCATIONAL FUND, priority 2007, published 2008).
“And” between values parts separate entries of the source, which are not always exact repeats. Equal entries are not always repeated.

System: SY cells
Test: TUNEL apoptosis assay, TG-stimulated SY cells in 3-D versus 2-D culture
Type: cell-based, human
Experimental: SY cells (1×10^6) cultured in 2-D or 3-D were incubated with or without 10 nM TG. The 2-D and 3-D cells were harvested using trypsin, washed in PBS, and fixed for 5-10 min in 2% PFA. Prior to fixation, the 3-D-cultured cells treated inside of the RWV were separated from the beads using a 40-μm cell strainer (Becton Dickinson). The fixed cells were permeabilized in PBS/FSG/Triton and blocked with 10% NGS. Apoptosis was evaluated using the Apoptag TUNEL assay kit (Chemicon). The results were analyzed using a Leica TCS SP2 confocal microscope as described above. Cell morphology consistent with apoptosis including cell shrinkage, nuclear condensation and membrane blebbing were assessed along with the fluorescein staining for TUNEL. The number of apoptotic cells counted was divided by the total (500 minimum) number of cells counted. This protocol was also followed for evaluation of apoptosis in PC12 cells. An increased drug tolerance, 30-nM TG was used in the PC12 assay. 3-D-cultured PC12 samples were stimulated for 5 days after removal from the RWV to multi-well dishes.
Thapsigargin (TG) is known to induce apoptosis through the passive release of Ca^2+ from ER stores. These events lead to subsequent increases in cytosolic Ca^2+, stressing both the ER and the mitochondria (Elyaman et al., 2002; Nechushtan A, Smith C L, Lamensdorf I, Yoon S H, Youle R J. Bax and Bak coalesce into novel mitochondria-associated clusters during apoptosis. The Journal of cell biology, 2001; 153: 1265-76; Nguyen H N, Wang C, Perry D C. Depletion of intracellular calcium stores is toxic to SH-SY5Y neuronal cells. Brain Res, 2002; 924: 159-66; Scorrano et al., 2003; Zong W X, Li C, Hatzivassiliou G, Lindsten T, Yu Q C, Yuan J, Thompson C B. Bax and Bak can localize to the endoplasmic reticulum to initiate apoptosis. The Journal of cell biology, 2003; 162: 59-69). In order to determine inherent differences in apoptosis between the 3-D and 2-D cultured cells, the terminal uridine deoxynucleotidyl transferase dUTP nick end labeling (TUNEL) assay was used. […]

SMILES: C/C=C(/C)C(=O)O[C@H]1C(C)=C2[C@H]([C@@H]1OC(=O)CCCCCCC)[C@@](C)(OC(C)=O)C[C@H](OC(=O)CCC)[C@@]1(O)[C@H]2OC(=O)[C@@]1(C)O [TG, Thapsigargin]
- thapsigargin-induced apoptosis in 3D cultured SH-SY5Y cells versus monolayer (3D versus ML culture): notably enhanced
- degree of apoptosis in TG-stimulated versus control cells at 24 h (24 h, TG 10 nM): noticeable difference in the degree of apoptosis occurring in stimulated versus control cells was found only in the 3-D(RWV) cells
- increase in TUNEL-positive (apoptotic) SY cells, 3-D versus 2-D culture, when treated with TG (TG 10 nM, 5 days, 3-D+TG versus 2-D+TG): 4 to 7 fold and 4- to 7 fold
